Laboratory results taken from article PMC6221957, “Phenol Derivatives From the Sponge-Derived Fungus Didymellaceae sp. SCSIO F46” (Frontiers in Chemistry, 2018).
One block for each compound: values may come before it.

Key:
[1] = Cytotoxicity assay (CCK-8), MCF-7; format: cell-based; conditions: human; MCF-7 cells, CCK-8, 72 h; read-out: Cytotoxic results IC50, MCF-7
Procedure: (§1) Cytotoxic activities of the isolated compounds 1–17 and trichostatin A (TSA, positive control) against 10 tumor cell lines (K562, MCF-7, A549, Huh-7, H1975, HeLa, HL7702, HL60, MOLT-4, and DU145) were tested. […]. Cytotoxicity was assayed with the CCK-8 (Dojindo, Japan) method. 10 Cell lines K562, MCF-7, A549, Huh-7, H1975, Hela, HL7702, HL60, MOLT-4, and DU145 were purchased from Shanghai Cell Bank, Chinese Academy of Sciences. Cells were routinely grown and maintained in RPMI or DMEM media with 10% fetal bovine serum and with 1% penicillin/streptomycin. All cell lines were incubated in a Thermo/ Forma Scientific CO2 water-jacketed incubator with 5% CO2 in air at 37 °C. A cell viability assay was determined with the CCK-8 (Dojindo, Japan) assay. Cells were seeded at a density of 400−800 cells/well in 384-well plates and treated with various concentrations of compounds or solvent control. After 72 h incubation, CCK-8 reagent was added, and absorbance was measured at 450 nm using an Envision 2104 multilabel reader (PerkinElmer, USA). Dose−response curves were plotted to determine the IC50 values using Prism 5.0 (GraphPad Software Inc., USA).

[2] = Cytotoxicity assay (CCK-8), Huh-7; format: cell-based; conditions: human; Huh-7 cells, CCK-8, 72 h; read-out: Cytotoxic results IC50, Huh-7
Procedure: as §1

[3] = Cytotoxicity assay (CCK-8), A549; format: cell-based; conditions: human; A549 cells, CCK-8, 72 h; read-out: Cytotoxic results IC50, A549
Procedure: as §1

[4] = system: 10 tumor cell lines (K562, MCF-7, A549, Huh-7, H1975, HeLa, HL7702, HL60, MOLT-4, and DU145); assay: Cytotoxicity against the panel of 10 tumor cell lines (summary statements); format: cell-based
Procedure: as §1

[5] = as above; format: cell-based; conditions: human
Procedure: as §1

[6] = Cytotoxicity assay (CCK-8), HL60; format: cell-based; conditions: human; HL60 cells, CCK-8, 72 h; read-out: Cytotoxic results IC50, HL60
Procedure: as §1

[7] = Cytotoxicity assay (CCK-8), DU145; format: cell-based; conditions: human; DU145 cells, CCK-8, 72 h; read-out: Cytotoxic results IC50, DU145
Procedure: as §1

[8] = Cytotoxicity assay (CCK-8), MOLT-4; format: cell-based; conditions: human; MOLT-4 cells, CCK-8, 72 h; read-out: Cytotoxic results IC50, MOLT-4
Procedure: as §1

[9] = Cytotoxicity assay (CCK-8), K562; format: cell-based; conditions: human; K562 cells, CCK-8, 72 h; read-out: Cytotoxic results IC50, K562
Procedure: as §1

[10] = Cytotoxicity assay (CCK-8), H1975; format: cell-based; conditions: human; H1975 cells, CCK-8, 72 h; read-out: Cytotoxic results IC50, H1975
Procedure: as §1

[11] = Cytotoxicity assay (CCK-8), HL7702; format: cell-based; conditions: human; HL7702 cells, CCK-8, 72 h; read-out: Cytotoxic results IC50, HL7702
Procedure: as §1

[12] = Cytotoxicity assay (CCK-8), HeLa; format: cell-based; conditions: human; HeLa cells, CCK-8, 72 h; read-out: Cytotoxic results IC50, HeLa
Procedure: as §1

COX-2 = target: T1, COX-2 (Ovis aries, UniProt P79208); assay: COX-2 inhibitory activity assay (COX (ovine) inhibitor screening kit); format: biochemical; conditions: enzyme immunoassay
T1 construct: purchased
T1 sequence (P79208 17-603): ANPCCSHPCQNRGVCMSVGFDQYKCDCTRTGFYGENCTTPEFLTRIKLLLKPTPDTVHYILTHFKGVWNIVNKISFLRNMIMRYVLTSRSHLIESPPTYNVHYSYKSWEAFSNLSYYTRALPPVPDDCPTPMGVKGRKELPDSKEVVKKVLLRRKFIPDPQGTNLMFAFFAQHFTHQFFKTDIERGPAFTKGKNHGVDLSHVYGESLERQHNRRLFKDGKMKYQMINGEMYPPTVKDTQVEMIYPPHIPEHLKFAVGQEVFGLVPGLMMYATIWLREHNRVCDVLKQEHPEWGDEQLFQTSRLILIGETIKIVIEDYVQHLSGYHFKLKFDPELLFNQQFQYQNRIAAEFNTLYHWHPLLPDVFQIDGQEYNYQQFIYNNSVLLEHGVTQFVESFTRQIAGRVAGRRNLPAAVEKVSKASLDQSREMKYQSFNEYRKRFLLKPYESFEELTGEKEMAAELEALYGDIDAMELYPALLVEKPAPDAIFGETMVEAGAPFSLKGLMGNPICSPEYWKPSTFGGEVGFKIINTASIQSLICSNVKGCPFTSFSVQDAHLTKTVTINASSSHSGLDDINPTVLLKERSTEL
Procedure: According to the manufacturer's instructions. The test compounds were dissolved in DMSO and the final concentration was set as 10 μM.
The COX-2 enzyme is a well-established target for anti-inflammatory evaluation. […] The COX-2 enzyme catalyses the biosynthesis of PGH2 from arachidonic acid. In this assay, the PGF2a produced by the reduction of PGH2 with stannous chloride (SnCl2) was measured in this enzyme immunoassay. The stock solutions were prepared in dimethyl sulfoxide, and the final concentration was set as 10 mM for the isolated compounds. The percentage inhibition was calculated by comparison with control incubations.

MCF-7 = assay: Cytotoxicity assay (CCK-8), MCF-7; format: cell-based; conditions: MCF-7 cells, CCK-8, 72 h; read-out: Cytotoxic results IC50, MCF-7
Procedure: as §1

Huh-7 = assay: Cytotoxicity assay (CCK-8), Huh-7; format: cell-based; conditions: Huh-7 cells, CCK-8, 72 h; read-out: Cytotoxic results IC50, Huh-7
Procedure: as §1

A549 = assay: Cytotoxicity assay (CCK-8), A549; format: cell-based; conditions: A549 cells, CCK-8, 72 h; read-out: Cytotoxic results IC50, A549
Procedure: as §1

HL60 = assay: Cytotoxicity assay (CCK-8), HL60; format: cell-based; conditions: HL60 cells, CCK-8, 72 h; read-out: Cytotoxic results IC50, HL60
Procedure: as §1

DU145 = assay: Cytotoxicity assay (CCK-8), DU145; format: cell-based; conditions: DU145 cells, CCK-8, 72 h; read-out: Cytotoxic results IC50, DU145
Procedure: as §1

MOLT-4 = assay: Cytotoxicity assay (CCK-8), MOLT-4; format: cell-based; conditions: MOLT-4 cells, CCK-8, 72 h; read-out: Cytotoxic results IC50, MOLT-4
Procedure: as §1

K562 = assay: Cytotoxicity assay (CCK-8), K562; format: cell-based; conditions: K562 cells, CCK-8, 72 h; read-out: Cytotoxic results IC50, K562
Procedure: as §1

H1975 = assay: Cytotoxicity assay (CCK-8), H1975; format: cell-based; conditions: H1975 cells, CCK-8, 72 h; read-out: Cytotoxic results IC50, H1975
Procedure: as §1

HL7702 = assay: Cytotoxicity assay (CCK-8), HL7702; format: cell-based; conditions: HL7702 cells, CCK-8, 72 h; read-out: Cytotoxic results IC50, HL7702
Procedure: as §1

HeLa = assay: Cytotoxicity assay (CCK-8), HeLa; format: cell-based; conditions: HeLa cells, CCK-8, 72 h; read-out: Cytotoxic results IC50, HeLa
Procedure: as §1

SMILES: COC(=O)c1c(C)cc(O)cc1Oc1cc(C)cc(O)c1 [Compound 3, Diorcinol L]
IC50 at 72 h [1]: 10.5 µM
IC50 at 72 h [2]: 5.7 µM
IC50 at 72 h [3]: 17.7 µM
Activities against other five cell lines (in words) ([4]; cell lines other than Huh-7, HeLa, DU145 and HL60): weak activities
IC50 at 72 h ([5]; range over Huh-7, HeLa, DU145 and HL60 cells, read-out: Cytotoxicities IC50 values against Huh-7, HeLa, DU145 and HL60 cells): 5.7 to 9.6 µM
IC50 at 72 h ([5]; range over the tumor cell lines of Table 3, read-out: Cytotoxicities IC50 values in the range over the cell lines): 5.7 to 68.2 µM
IC50 at 72 h [6]: 9.6 µM
IC50 at 72 h [7]: 9.1 µM
IC50 at 72 h [8]: > 200 µM
IC50 at 72 h [9]: 43.5 µM
IC50 at 72 h [10]: 15.3 µM
IC50 at 72 h [11]: 68.2 µM
IC50 at 72 h [12]: 7.1 µM

IC50 (COX-2): 3.3 µM
SMILES: Cc1cc(O)c(O)c2oc3c(C(=O)O)cc(O)cc3c12 [Compound 6, Porric acid E]

SMILES: Cc1cc(CO)c2c(=O)c3c(O)cccc3oc2c1 [Compound 8, 1-Hydroxy-6-methyl-8-hydroxy-methylxanthone]
IC50 at 72 h [1]: 141 µM
IC50 at 72 h [2]: 122 µM
IC50 at 72 h [3]: 128 µM
Cytotoxicities against HeLa and HL7702 cells (in words) ([4]; HeLa and HL7702 cells): weak selective cytotoxicities
IC50 at 72 h [6]: > 200 µM
IC50 at 72 h [7]: > 200 µM
IC50 at 72 h [8]: > 200 µM
IC50 at 72 h [9]: > 200 µM
IC50 at 72 h [10]: > 200 µM
IC50 at 72 h [11]: 33.8 µM
IC50 at 72 h [12]: 14.3 µM

SMILES: CC(/C=C/C(=O)NO)=C\[C@@H](C)C(=O)c1ccc(N(C)C)cc1 [TSA, trichostatin A, reference compound]
IC50 (MCF-7): 0.7 µM
IC50 (Huh-7): 0.08 µM
IC50 (A549): 0.3 µM
IC50 (HL60): 0.04 µM
IC50 (DU145): 0.04 µM
IC50 (MOLT-4): 0.03 µM
IC50 (K562): 0.1 µM
IC50 (H1975): 0.09 µM
IC50 (HL7702): 0.09 µM
IC50 (HeLa): 0.08 µM
